# In patent US7842324B2 (Senomyx, Inc., priority 2005, dated 2010):
# Tested on: tasters
# Assay: Reduced sugar frosted breakfast cereal sensory evaluation
# Format: in vivo, human
# Conditions: for Avgage Sweet Intensity Score: scale 1 to 10
# Procedure: A 100 gram sample of a solid sweetener concentrate composition was prepared from 1.000 g of compound 23 and 99.000 g of 10 D.E. maltodextrin. “DE” i.e. “[…]” is a measure of the degree of depolymerization of the corn starches used to manufacture maltodextrins. Fifty grams of the maltodextrin was placed on the bottom of a clean and dried mortar and the 1.000 gr of compound 23 was added to the maltodextrin and slowly ground and mixed into the maltodextrin. The remaining 50 grams of maltodextrin was added to a planetary mixer with a wire whip attachment (KITCHEN AIDE™ Mixer), then the contents of the mortar were placed into the mixer and the mixer was turned on to a slow speed (setting 3), and allowed to mix for 10 minutes. A rubber spatula was used to scrap the walls and bottom of the bowl, then the mixture was blended on low for another 15 minutes. The 100× diluted solid sweetener concentrate composition was stored in an air tight amber glass container. The contents were mixed in the glass container before taking out aliquots of the dry diluted sweet enhancer.
# Using the KITCHEN AIDE™ Mixer with the wire whip attachment, the granulated sugar, powdered sugar, gum arabic, dextrin, and the 1:100 diluted sweetener concentrate composition were mixed at speed 3. Water and the HFCS were placed into a 1000 mL stainless steel cylinder and mixed using a LIGHTNIN™ Mixer at 500 to 650 rpms using a 2.5 inch (6.35 cm) impeller with three straight blades until the HFCS was dissolved (5 minutes). A vortex was created by positioning the impeller blades at a 30 to 45° angle. The dry/sugar/gum dry blend was added to the vortex very slowly and allowed to mix until the sugar dissolved and the gum rehydrated. An additional 10 minute mixing time was allowed after the last of the dry blend was added, to form the frosting. […]
# Frosted corn flake cereal samples were evaluated using a rank rating design by tasters. […]
structure (smiles),measurement,setting,value
"CC(C)CNC(=O)C(C)(C)c1ccc(-c2cncc(C#N)c2)cc1 [Compound 23, 2-(4-(5-cyanopyridin-3-yl)phenyl)-N-isobutyl-2-methylpropanamide]",sweetness compared with fully sugar frosted cornflake control,9.6 ppm in frosting,almost as much sweetness as the fully sugar frosted cornflake control
same,Avgage Sweet Intensity Score,⅔ sugared frosted corn flakes + 6.6 ppm,7.5
same,Avgage Sweet Intensity Score,⅔ sugared frosted corn flakes + 9.6 ppm,7.81
